# Measurements: patent publication EP0296264A1, “Aminopropanol derivatives of 3-(2-hydroxyphenyl)-1-propanone, process for their preparation and medicines containing these compounds” (Helopharm W. Petrik GmbH & Co.KG., priority 1987, dated 1988)
# Where a name gives a salt, the structure may show the parent alone.
# Experiments:
# [1] = Effect on contraction force of the heart, guinea pig papillary muscle (negative inotropy); format: cell-based, Meerschweinchen; conditions: concentration that reduces the contraction of the papillary muscle by 20 %, read-out: C20_CF
# Description: Die Wirkung auf die Kontraktionskraft des Herzens wurde am Meerschweinchenpapillarmuskel untersucht. Hämodynamische Studien wurden bei gesunden, wie auch akut infarzierten Hunden durchgeführt.
# [2] = system: Purkinje-Fasern aus Hundeherzen; experiment: Electrophysiological study on Purkinje fibres from dog hearts (Vmax, conduction delay); format: cell-based, Hunde; conditions: Canis lupus familiaris, read-out: C20_Vmax
# Description: Die antiarrhythmische Wirksamkeit der erfindungsgemäßen Verbindungen wurde sowohl anhand von elektrophysiologischen Studien an Purkinje-Fasern aus Hundeherzen sowie mit Hilfe von Ouabain-induzierten ventrikulären Tachykardien bei Hunden bestimmt. […]
# Als zusätzliches Kriterium wurde der Vorzeitigkeitsindex (Prematurity-Faktor) bestimmt, der die erwünschte Wirksamkeit der erfindungsgemäßen Verbindungen bei frühzeitig einfallenden Extrasystolen charakterisiert.
IC20 [1] [µM],SMILES,IC20 [2] [µM]
3,"CCCNCC(O)COc1ccccc1CCC(=O)c1cccc(OC)c1 (stereo not drawn) [Beispiel 26, 1-(3-Methoxyphenyl)-3-[2ʹ-(2-hydroxy-3-n-propylamino-propoxy)-phenyl]-1-propanon-hydrochlorid]",1.7
6,"Cc1ccc(C(=O)CCc2ccccc2OCC(O)CNC(C)(C)C)cc1 (stereo not drawn) [Beispiel 44, 1-(4-Methylphenyl)-3-[2ʹ-(2-hydroxy-3-tert.-butylamino-propoxy)-phenyl]-1-propanon-hydrochlorid]",2.6
20,"COc1ccc(C(=O)CCc2ccccc2OCC(O)CN2CCCCC2)cc1OC (stereo not drawn) [Beispiel 6, 1-(3,4-Dimethoxyphenyl)-3-[2ʹ-(2-hydroxy-3-piperidino-propoxy)-phenyl]-1-propanon-hydrochlorid]",11.3
7,"COc1ccccc1C(=O)CCc1ccccc1OCC(O)CNC(C)(C)C (stereo not drawn) [Beispiel 38, 1-(2-Methoxyphenyl)-3-[2ʹ-(2-hydroxy-3-tert.-butylamino-propoxy)-phenyl]-1-propanon-hydrochlorid]",1.7
22,"COc1ccc(C(=O)CCc2ccccc2OCC(O)CNC(C)C)cc1OC (stereo not drawn) [Beispiel 4, 1-(3,4-Dimethoxyphenyl)-3-[2ʹ-(2-hydroxy-3-isopropylamino-propoxy)-phenyl]-1-propanon-hydrochlorid]",4.8
15,"CCCNCC(O)COc1ccccc1CCC(=O)c1ccc(OC)c(OC)c1 (stereo not drawn) [Beispiel 1, 1-(3,4-Dimethoxyphenyl)-3-[2ʹ-(2-hydroxy-3-n-propylamino-propoxy)-phenyl]-1-propanon-hydrochlorid]",12.5
13,"COc1ccc(C(=O)CCc2ccccc2OCC(O)CNCCO)cc1OC (stereo not drawn) [Beispiel 8, 1-(3,4-Dimethoxyphenyl)-3-[2ʹ-(2-hydroxy-3-(2ʺ-hydroxyethylamino)-propoxy)-phenyl]-1-propanon-hydrochlorid]",8.3
2,"O=C(CCc1ccccc1OCC(O)CN1CCCCC1)c1ccccc1 (stereo not drawn) [Beispiel 47, 1-Phenyl-3-[2ʹ-(2-hydroxy-3-piperidino-propoxy)-phenyl]-1-propanon-hydrochlorid]",0.3
10,"COc1cccc(C(=O)CCc2ccccc2OCC(O)CNC(C)C)c1 (stereo not drawn) [Beispiel 24, 1-(3-Methoxyphenyl)-3-[2ʹ-(2-hydroxy-3-isopropylamino-propoxy)-phenyl]-1-propanon-hydrochlorid]",1.6
25,"CCC(CO)NCC(O)COc1ccccc1CCC(=O)c1ccc(OC)c(OC)c1 (stereo not drawn) [Beispiel 9, 1-(3,4-Dimethoxyphenyl)-3-[2ʹ-(2-hydroxy-3-(1ʺ-hydroxybut-2-ylamino)-propoxy)-phenyl]-1-propanon-oxalat]",10.2
12,"COc1ccc(C(=O)CCc2ccccc2OCC(O)CNC(C)(C)C)cc1OC (stereo not drawn) [Beispiel 5, 1-(3,4-Dimethoxyphenyl)-3-[2ʹ-(2-hydroxy-3-tert.-butylamino-propoxy)-phenyl]-1-propanon-hydrochlorid]",4.4
18,"COc1cc(C(=O)CCc2ccccc2OCC(O)CNC(C)C)cc(OC)c1OC (stereo not drawn) [Beispiel 12, 1-(3,4,5-Trimethoxyphenyl)-3-[2ʹ-(2-hydroxy-3-isopropylamino-propoxy)-phenyl]-1-propanon-hydrochlorid]",5.8
4,"COc1cccc(C(=O)CCc2ccccc2OCC(O)CNC(C)(C)C)c1 (stereo not drawn) [Beispiel 27, 1-(3-Methoxyphenyl)-3-[2ʹ-(2-hydroxy-3-tert.-butylamino-propoxy)-phenyl]-1-propanon-hydrochlorid]",1.6
18,"COc1ccc(C(=O)CCc2ccccc2OCC(O)CNCC(C)O)cc1OC (stereo not drawn) [Beispiel 7, 1-(3,4-Dimethoxyphenyl)-3-[2ʹ-(2-hydroxy-3-(2ʺ-hydroxypropylamino)-propoxy)-phenyl]-1-propanon-hydrochlorid]",5.7
9,"COc1cc(C(=O)CCc2ccccc2OCC(O)CNC2CCCCC2)cc(OC)c1OC (stereo not drawn) [Beispiel 16, 1-(3,4,5-Trimethoxyphenyl)-3-[2ʹ-(2-hydroxy-3-cyclohexylamino-propoxy)-phenyl]-1-propanon-hydrochlorid]",11.9
3,"CC(C)(C)NCC(O)COc1ccccc1CCC(=O)c1ccccc1 (stereo not drawn) [Beispiel 48, 1-Phenyl-3-[2ʹ-(2-hydroxy-3-tert.-butylamino-propoxy)-phenyl]-1-propanon-hydrochlorid]",1
8,"CCC(C)(C)NCC(O)COc1ccccc1CCC(=O)c1ccc(OC)c(OC)c1 (stereo not drawn) [Beispiel 2, 1-(3,4-Dimethoxyphenyl)-3-[2ʹ-(2-hydroxy-3-tert.-pentylamino-propoxy)-phenyl]-1-propanon-hydrochlorid]",3.6
2,"O=C(CCc1ccccc1OCC(O)CNC1CCCCC1)c1ccccc1 (stereo not drawn) [Beispiel 46, 1-Phenyl-3-[2ʹ-(2-hydroxy-3-cyclohexylamino-propoxy)-phenyl]-1-propanon-hydrochlorid]",2.2
